Two compounds from ChEMBL document CHEMBL1155749, “Five new polyoxygenated cholestane bisdesmosides from the bulbs of Galtonia candicans” (J Nat Prod, 2001) can be followed below.

This assay relates to HL-60. The experiment in a line: Cytotoxicity against human HL60 cells after 72 hrs by MTT assay. The format is functional, cell-based. The note with it: HL-60, 72 h.

≈ marks a conversion by molar mass, not a printed value.

Usually IC50 stands for the concentration needed to halve the response being measured. Read a high IC50 as weaker potency. With `CC(=O)O[C@@H]1[C@@H](O)[C@H](C)O[C@@H](O[C@H]2C[C@H]3[C@@H]4CC=C5C[C@@H](O[C@@H]6O[C@H](CO)[C@@H](O)[C@H](O)[C@H]6O)CC[C@]5(C)[C@H]4CC[C@]3(C)[C@H]2[C@H](C)[C@@H](O)CC=C(C)C)[C@@H]1O`, 6.8 µg/mL (≈ 8.87 µM) corresponded to half-maximal inhibition (IC50).

Compound `COc1cc([C@@H]2c3cc4c(cc3[C@@H](O[C@@H]3O[C@@H]5CO[C@@H](C)O[C@H]5[C@H](O)[C@H]3O)[C@H]3COC(=O)[C@H]23)OCO4)cc(OC)c1O` [ETOPOSIDE] returned an IC50 of 0.25 µg/mL (≈ 0.425 µM).
